The values that follow come from patent EP2601945A1 (Thomale, Jürgen, priority 2011, dated 2013).

The structures appear in SMILES notation. Values joined by “and” are separate entries in the source; they are usually repeats but may differ in a detail not shown here. Identical values can stand only once.

Data set [1] has as its system Kras/p53 deficient mice. Put plainly: Survival upon repetitive cis-platin treatment. The conditions noted are these: repetitive cis-platin 9 mg/kg in combination with DPH 50 mg/kg versus cis-platin alone (Figure 16). Type of data set: in vivo.
The test system of data set [2] is hearing capability. Kind of data set: BAER hearing test in XPA-/- and wild type mice after low dose cis-platin. The settings on record: cis-platin cumulative dose 3.5 mg/kg within two weeks, NER-deficient XPA-/- mice.

Take `CN(C)CCOC(c1ccccc1)c1ccccc1` [DPH, diphenhydramine]: the survival result in data set [1] is recorded as “improved survival rates”.

`N.N.[Cl][Pt][Cl]` [cis-platin, cis-diaminedichloro-platinum(II)]: in data set [2], the “reduction of hearing capability (BAER), XPA-/- mice” value was 45% and ~50%.
